Some test systems named below: MDA-MB-435; SK-MEL-2 melanoma; TK-10 renal; LOX IMVI melanoma; MDA-MB-231 breast; UACC-257 melanoma; MDA-N; RXF 393 renal; COLO 205 colon; IGROV1 ovarian.
What all share (test): NCI anticancer screen, dose series, 48 h

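Tested at 5 concentrations; 48 h exposure; 96-well plates; endpoints linearly interpolated, else capped at highest concentration. TGI: concentration producing complete growth inhibition.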

For the compound `CNc1ccc([N+](=O)[O-])cc1C(=O)N1CCC[C@H]1CO`, the TGI in the assay with MDA-MB-435, in the assay on SK-MEL-2 melanoma, with TK-10 renal, with LOX IMVI melanoma, in the assay on MDA-MB-231 breast and in the assay on UACC-257 melanoma was > 100 µM throughout. The TGI with MDA-N, in the assay on RXF 393 renal, with COLO 205 colon and in the assay on IGROV1 ovarian was > 100 µM throughout.

For the compound `COc1cc2c(cc1OCc1ccccc1)NC(=O)[C@@H]1C[C@@H](O)CN1C2=O`, the TGI with MDA-MB-435, in the assay with SK-MEL-2 melanoma, in the assay with TK-10 renal, in the assay with LOX IMVI melanoma, in the assay with MDA-MB-231 breast and in the assay with UACC-257 melanoma was > 100 µM each time. For the same compound, the TGI in the assay on MDA-N, with RXF 393 renal, in the assay on COLO 205 colon and in the assay with IGROV1 ovarian was > 100 µM in each case.

`O/N=C1/CCCCC1NO` (stereo not given): the TGI in the assay on MDA-MB-435, with SK-MEL-2 melanoma, in the assay on TK-10 renal, in the assay with LOX IMVI melanoma, with MDA-MB-231 breast and with UACC-257 melanoma was > 100 µM each time. For the same compound, the TGI in the assay with MDA-N, in the assay with RXF 393 renal, in the assay with COLO 205 colon and in the assay with IGROV1 ovarian was > 100 µM throughout.

For `C=C(Cl)C(=C)CCC(Cl)C(C)(C)Cl` (stereo not given), the TGI in the assay on MDA-MB-435, in the assay with SK-MEL-2 melanoma, with TK-10 renal, in the assay with LOX IMVI melanoma, in the assay with MDA-MB-231 breast and in the assay on UACC-257 melanoma was > 100 µM each time. The TGI in the assay on MDA-N, in the assay with RXF 393 renal, in the assay with COLO 205 colon and in the assay with IGROV1 ovarian was > 100 µM each time.

As to `Cc1ccc(Oc2cc(C)ccc2P(=O)(O)O)cc1`, the TGI in the assay with MDA-MB-435, in the assay with SK-MEL-2 melanoma, in the assay with TK-10 renal, with LOX IMVI melanoma, in the assay on MDA-MB-231 breast and in the assay with UACC-257 melanoma was > 100 µM throughout. Further, the TGI in the assay with MDA-N, in the assay on RXF 393 renal, in the assay with COLO 205 colon and in the assay with IGROV1 ovarian was > 100 µM each time.

With `Cn1c(=O)n2n(c1=O)C1C(=CC2)C2C=CC1n1c(=O)n(C)c(=O)n12` (stereo not given), the TGI in the assay with MDA-MB-435, in the assay with SK-MEL-2 melanoma, with TK-10 renal, in the assay with LOX IMVI melanoma, in the assay on MDA-MB-231 breast and with UACC-257 melanoma was > 100 µM in each case. Further, the TGI in the assay on MDA-N, with RXF 393 renal, in the assay on COLO 205 colon and with IGROV1 ovarian was > 100 µM in each case.

Regarding `O=C(n1c(=O)n(-c2ccc([N+](=O)[O-])cc2)c(=O)n1C(=O)C(Cl)(Cl)Cl)C(Cl)(Cl)Cl`, the TGI with MDA-MB-435, with SK-MEL-2 melanoma, with TK-10 renal, with LOX IMVI melanoma, in the assay with MDA-MB-231 breast and in the assay on UACC-257 melanoma was > 100 µM throughout. In addition, the TGI with MDA-N, in the assay on RXF 393 renal, in the assay with COLO 205 colon and with IGROV1 ovarian was > 100 µM each time.

As for `OCC1=C[C@@](COCc2ccccc2)(OCc2ccccc2)[C@@H](OCc2ccccc2)[C@@H]1OCc1ccccc1`, the TGI with MDA-MB-435 is 27.4 µM; in the assay with SK-MEL-2 melanoma it was 39.3 µM; in the assay on TK-10 renal, > 100 µM; in the assay with LOX IMVI melanoma, 21.9 µM; in the assay with MDA-MB-231 breast it was 25.4 µM; in the assay with UACC-257 melanoma it was 67.6 µM. Also, the TGI in the assay with MDA-N is 53.6 µM; in the assay on RXF 393 renal it was 18.4 µM; with COLO 205 colon, 23.9 µM; in the assay with IGROV1 ovarian, 38.5 µM.

With `Cc1cc(C(C)(C)C)c(OCCCN2CCOCC2)c(C(C)(C)C)c1`, the TGI with MDA-MB-435 was 38.2 µM; with SK-MEL-2 melanoma it was 31.3 µM; in the assay with TK-10 renal, 36.2 µM; in the assay with LOX IMVI melanoma, 36.5 µM; in the assay on MDA-MB-231 breast, 32.2 µM; in the assay on UACC-257 melanoma it was 32 µM. For the same compound, the TGI with MDA-N worked out at 34 µM; with RXF 393 renal, 31.9 µM; with COLO 205 colon it was 30.6 µM; in the assay with IGROV1 ovarian it was 34.2 µM.

With `O=c1c2cc(Cl)ccc2n2nnc3ccc(NCCNCCO)c1c32`, the TGI in the assay on MDA-MB-435 came out at 2.36 µM; in the assay with SK-MEL-2 melanoma, 5.01 µM; in the assay with TK-10 renal, 6.24 µM; with LOX IMVI melanoma, 1.96 µM; with MDA-MB-231 breast, 2.81 µM; in the assay on UACC-257 melanoma, 3.6 µM. Besides, the TGI in the assay with MDA-N worked out at 2.32 µM; in the assay with RXF 393 renal, 3.45 µM; in the assay with COLO 205 colon, 2.68 µM; in the assay with IGROV1 ovarian, 6.26 µM.

On to `CCOC(=O)C1C2C1C1C(C(=O)OCC)C21` (stereo not given), for which the TGI with MDA-MB-435, with SK-MEL-2 melanoma, in the assay on TK-10 renal, in the assay on LOX IMVI melanoma, in the assay with MDA-MB-231 breast and with UACC-257 melanoma was > 100 µM in each case. Also, the TGI in the assay on MDA-N, in the assay on RXF 393 renal, in the assay on COLO 205 colon and in the assay with IGROV1 ovarian was > 100 µM in each case.

For the compound `COc1cc(/C=C2\N=C(c3ccccc3)N(c3ccc(C(=O)c4ccccc4)cc3N3C(=O)/C(=C/c4cc(OC)c(OC)c(OC)c4)N=C3c3ccccc3)C2=O)cc(OC)c1OC`, the TGI is 18.5 µM in the assay on MDA-MB-435; 25.1 µM with SK-MEL-2 melanoma; 42.3 µM in the assay with TK-10 renal; 39.2 µM with LOX IMVI melanoma; 54 µM in the assay with MDA-MB-231 breast; 33.4 µM in the assay with UACC-257 melanoma. The TGI was 14.9 µM in the assay with MDA-N, 34.9 µM in the assay on RXF 393 renal, 30 µM with COLO 205 colon and > 100 µM in the assay on IGROV1 ovarian.

Turning to `CC1=C(C(=O)OC(C)C)C(c2cccc([N+](=O)[O-])c2)C(C(=O)OC(CO[N+](=O)[O-])CO[N+](=O)[O-])=C(C)N1` (stereo not given), the TGI in the assay on MDA-MB-435 is 15.3 µM; in the assay on SK-MEL-2 melanoma, 5.61 µM; in the assay on TK-10 renal, > 100 µM; in the assay with LOX IMVI melanoma it was 11 µM; with MDA-MB-231 breast it was > 20.7 µM; in the assay on UACC-257 melanoma, 13.3 µM. Also, the TGI is 8.71 µM in the assay on MDA-N, 58.1 µM in the assay with RXF 393 renal, 8.39 µM in the assay on COLO 205 colon and > 87.6 µM with IGROV1 ovarian.
